From the supplement of paper PMC4862054
Several values for one entry are separate records, joined by “and”; a condition that tells them apart may be missing. Equal entries are not always repeated.

Assays:
Conditions in all cases: incubation time: 72 h
BT-474 = test: drug sensitivity score (DSS), CellTiter-Blue viability (DSS (AUC-based score)); higher = stronger viability inhibition; extreme values may be limits of the assay
Method: (§1)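 DSRT with the CellTiter-Blue (resazurin reduction) viability readout, fluorescence 560/590 nm, 72 h incubation. Plates were normalised to DMSO and benzethonium chloride controls. DSS is computed from the area under the fitted dose-response curve (5 or 9 concentrations).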

BT-549 = test: as above
Method: as §1

MDA-MB-453 [1] = test: as above
Method: as §1

HCC1937 [2] = test: as above
Method: as §1

Hs578T = test: as above
Method: as §1

CAL-85-1 = test: as above
Method: as §1

DU-4475 = test: as above
Method: as §1

HDQ-P1 [3] = test: as above
Method: as §1

MDA-MB-468 = test: as above
Method: as §1

MDA-MB-231 = test: as above
Method: as §1

CAL-51 [4] = test: as above
Method: as §1

SK-BR-3 = test: as above
Method: as §1

CAL-120 = test: as above
Method: as §1

MDA-MB-436 [5] = test: as above
Method: as §1

HCC1599 [6] = test: as above
Method: as §1

CAL-148 = test: as above
Method: as §1

HCC1143 = test: as above
Method: as §1

MFM-223 [7] = test: as above
Method: as §1

MDA-MB-453 [8] = test: normalised viability (% of control), CellTiter-Blue; higher = more viable cells (about 100 = DMSO control)
Procedure, shortened: (§2)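 Normalised viability is given for a single listed concentration of the series. In 384-well plates, breast cancer cell lines were incubated 72 h with compound, then read with CellTiter-Blue (2 h, 37 °C) at 560/590 nm. Per-plate scaling set vehicle to 100 and a positive kill control to 0, with Z'-factor quality control.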

HCC1937 [9] = test: as above
Procedure, shortened: as §2

HDQ-P1 [10] = test: as above
Procedure, shortened: as §2

CAL-51 [11] = test: as above
Procedure, shortened: as §2

MDA-MB-436 [12] = test: as above
Procedure, shortened: as §2

HCC1599 [13] = test: as above
Procedure, shortened: as §2

MFM-223 [14] = test: as above
Procedure, shortened: as §2

Compound	drug sensitivity score (BT-474)	drug sensitivity score (BT-549)	drug sensitivity score (MDA-MB-453 [1])	drug sensitivity score (HCC1937 [2])	drug sensitivity score (Hs578T)	drug sensitivity score (CAL-85-1)	drug sensitivity score (HDQ-P1 [3])	drug sensitivity score (MDA-MB-468)	drug sensitivity score (MDA-MB-231)	drug sensitivity score (CAL-51 [4])	drug sensitivity score (SK-BR-3)	drug sensitivity score (CAL-120)	drug sensitivity score (MDA-MB-436 [5])	drug sensitivity score (HCC1599 [6])	drug sensitivity score (CAL-148)	drug sensitivity score (HCC1143)	drug sensitivity score (MFM-223 [7])	normalised viability (MDA-MB-453 [8]; 3 nM)	normalised viability (HCC1937 [9]; 1000 nM)	normalised viability (HDQ-P1 [10]; 3 nM)	other results
C/C(=C\c1csc(C)n1)[C@@H]1C[C@@H]2O[C@]2(C)CCC[C@H](C)[C@H](O)[C@@H](C)C(=O)C(C)(C)[C@@H](O)CC(=O)N1 [Ixabepilone]	2.15	3.35	3.24	5.41	2.45	2.08	0	3.09	10.5	0.607	3.73	0.647	4.17	1.1	2.58	1.78	2.45	87.4%	17.2%	76.4%	drug sensitivity score (DU-4475): 2.31; normalised viability (MDA-MB-453 [8]; 0.3 nM): 108%; normalised viability (MDA-MB-453 [8]; 10 nM): 87.3%; normalised viability (HCC1937 [9]; 1 nM): 87.5%; normalised viability (HCC1937 [9]; 100 nM): 89.1%; normalised viability (HDQ-P1 [10]; 0.3 nM): 91.1%; normalised viability (HDQ-P1 [10]; 10 nM): 95.3%; normalised viability (CAL-51 [11]; 0.3 nM): 110%; normalised viability (CAL-51 [11]; 3 nM): 107%; normalised viability (CAL-51 [11]; 10 nM): 107%; normalised viability (MDA-MB-436 [12]; 1 nM): 88.8%; normalised viability (MDA-MB-436 [12]; 100 nM): 90.1%; normalised viability (MDA-MB-436 [12]; 1000 nM): 51.7%; normalised viability (HCC1599 [13]; 1 nM): 98.5%; normalised viability (HCC1599 [13]; 100 nM): 87.6%; normalised viability (HCC1599 [13]; 1000 nM): 81.2%; normalised viability (MFM-223 [14]; 1 nM): 76.8%; normalised viability (MFM-223 [14]; 100 nM): 75.8%; normalised viability (MFM-223 [14]; 1000 nM): 31.6%
C=CCn1c(=O)c2cnc(Nc3ccc(N4CCN(C)CC4)cc3)nc2n1-c1cccc(C(C)(C)O)n1 [MK1775]	13	13.3	15.1	15	14.2	11.1	13.6	11.5	15	16.2	20.4	16	13.3	7.82	18.3	9.62	12.4	89.6%	34.1%	92.9%	drug sensitivity score (DU-4475): 15; normalised viability (MDA-MB-453 [8]; 30 nM): 86.3%; normalised viability (MDA-MB-453 [8]; 100 nM): 88.7%; normalised viability (HCC1937 [9]; 10 nM): 77.7%; normalised viability (HCC1937 [9]; 10000 nM): 27.2%; normalised viability (HDQ-P1 [10]; 30 nM): 98.5%; normalised viability (HDQ-P1 [10]; 100 nM): 94.4%; normalised viability (CAL-51 [11]; 3 nM): 98.9%; normalised viability (CAL-51 [11]; 30 nM): 90.8%; normalised viability (CAL-51 [11]; 100 nM): 87%; normalised viability (MDA-MB-436 [12]; 10 nM): 113%; normalised viability (MDA-MB-436 [12]; 1000 nM): 37%; normalised viability (MDA-MB-436 [12]; 10000 nM): 21.4%; normalised viability (HCC1599 [13]; 10 nM): 86.4%; normalised viability (HCC1599 [13]; 1000 nM): 59%; normalised viability (HCC1599 [13]; 10000 nM): 45.3%; normalised viability (MFM-223 [14]; 10 nM): 102%; normalised viability (MFM-223 [14]; 1000 nM): 44.3%; normalised viability (MFM-223 [14]; 10000 nM): 40.1%
CN(Cc1cnc2nc(N)nc(N)c2n1)c1ccc(C(=O)N[C@@H](CCC(=O)O)C(=O)O)cc1 [Methotrexate]	0	0	0	0	4.17	9.69	0	18.6	0	15.1	16.2	17.3	0	0	9.98	10.5	0	108%	72.1%	108%	drug sensitivity score (DU-4475): 0; normalised viability (MDA-MB-453 [8]; 30 nM): 102%; normalised viability (MDA-MB-453 [8]; 100 nM): 90.7%; normalised viability (HCC1937 [9]; 10 nM): 86.5%; normalised viability (HCC1937 [9]; 10000 nM): 76.1%; normalised viability (HDQ-P1 [10]; 30 nM): 95.5%; normalised viability (HDQ-P1 [10]; 100 nM): 96%; normalised viability (CAL-51 [11]; 3 nM): 108%; normalised viability (CAL-51 [11]; 30 nM): 101%; normalised viability (CAL-51 [11]; 100 nM): 62.6%; normalised viability (MDA-MB-436 [12]; 10 nM): 111%; normalised viability (MDA-MB-436 [12]; 1000 nM): 64.4%; normalised viability (MDA-MB-436 [12]; 10000 nM): 93.6%; normalised viability (HCC1599 [13]; 10 nM): 102%; normalised viability (HCC1599 [13]; 1000 nM): 75.6%; normalised viability (HCC1599 [13]; 10000 nM): 103%; normalised viability (MFM-223 [14]; 10 nM): 108%; normalised viability (MFM-223 [14]; 1000 nM): 107%; normalised viability (MFM-223 [14]; 10000 nM): 100%
COc1c2occc2cc2ccc(=O)oc12 [Methoxsalen]	0	0	1.68	0	0	0.682	0	0	0	0	0	0	0	0	1.28	0	0	119%	36%	115%	drug sensitivity score (DU-4475): 0.558; normalised viability (MDA-MB-453 [8]; 30 nM): 103%; normalised viability (MDA-MB-453 [8]; 100 nM): 112%; normalised viability (HCC1937 [9]; 10 nM): 68.3%; normalised viability (HCC1937 [9]; 10000 nM): 77.7%; normalised viability (HDQ-P1 [10]; 30 nM): 104%; normalised viability (HDQ-P1 [10]; 100 nM): 105%; normalised viability (CAL-51 [11]; 3 nM): 109%; normalised viability (CAL-51 [11]; 30 nM): 109%; normalised viability (CAL-51 [11]; 100 nM): 104%; normalised viability (MDA-MB-436 [12]; 10 nM): 90.6%; normalised viability (MDA-MB-436 [12]; 1000 nM): 87.1%; normalised viability (MDA-MB-436 [12]; 10000 nM): 93.8%; normalised viability (HCC1599 [13]; 10 nM): 106%; normalised viability (HCC1599 [13]; 1000 nM): 85%; normalised viability (HCC1599 [13]; 10000 nM): 93.5%; normalised viability (MFM-223 [14]; 10 nM): 100%; normalised viability (MFM-223 [14]; 1000 nM): 101%; normalised viability (MFM-223 [14]; 10000 nM): 50.5%
O=C(CCCCCCC(=O)Nc1ccccc1)NO [Vorinostat]	6.34 and 8.1	4.56 and 4.64	11.4 and 11.6	6.22 and 7.75	5.57 and 5.8	4.59 and 3.98	3.82 and 8.64	6.66 and 5.72	5.31 and 5.33	0.68 and 0.982	14.2 and 12.8	9.7 and 7.55	8.55 and 3.68	6.85 and 2.71	5.26 and 4.8	4.79 and 6.75	7.1 and 6.77	107% and 96.8%	77.7% and 63.4%	99.4% and 88.7%	normalised viability (HCC1937 [9]; 10 nM): 73% and 92.4%; normalised viability (HCC1937 [9]; 10000 nM): 24.6% and 22.7%; normalised viability (HDQ-P1 [10]; 30 nM): 97.2% and 84.3%; normalised viability (HDQ-P1 [10]; 100 nM): 95.6% and 87.5%; normalised viability (CAL-51 [11]; 3 nM): 113% and 102%; normalised viability (CAL-51 [11]; 30 nM): 102%; normalised viability (CAL-51 [11]; 100 nM): 106% and 97.5%; normalised viability (MDA-MB-436 [12]; 10 nM): 105% and 104%; normalised viability (MDA-MB-436 [12]; 10000 nM): 41.3% and 40.6%; normalised viability (HCC1599 [13]; 10 nM): 110% and 97.9%; normalised viability (HCC1599 [13]; 1000 nM): 85.5% and 99.2%; normalised viability (HCC1599 [13]; 10000 nM): 20.5%; normalised viability (MFM-223 [14]; 10 nM): 97.4% and 103%; normalised viability (MFM-223 [14]; 1000 nM): 84% and 74%; normalised viability (MFM-223 [14]; 10000 nM): 19.7% and 18.4%
